{
  "source": "paper PMC12796733",
  "about": "(The Journal of Biological Chemistry, 2025)",
  "type_in_all_cases": "binding",
  "key": {"NEAT2 [1]": {"biological_target": "T1, NEAT2 (Streptococcus pyogenes, UniProt Q99YA0)", "T1 construct": "gene shr; NEAT2 domain, Ala970-Thr1129 of 1275-residue Shr; E. coli BL21(DE3)", "T1 sequence (Q99YA0 970-1129)": "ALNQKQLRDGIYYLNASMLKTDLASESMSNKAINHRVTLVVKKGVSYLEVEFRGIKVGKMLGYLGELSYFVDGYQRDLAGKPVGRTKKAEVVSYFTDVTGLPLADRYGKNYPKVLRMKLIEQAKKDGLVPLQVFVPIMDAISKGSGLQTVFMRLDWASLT", "experiment": "isothermal titration calorimetry", "conditions": "PBS pH 7.4, 5% DMSO, 25 °C; one set of sites"}, "Shp": {"biological_target": "T2, Shp (Streptococcus pyogenes, UniProt Q06A48)", "T2 construct": "E. coli BL21(DE3)", "T2 sequence (Q06A48 entry or part of it)": "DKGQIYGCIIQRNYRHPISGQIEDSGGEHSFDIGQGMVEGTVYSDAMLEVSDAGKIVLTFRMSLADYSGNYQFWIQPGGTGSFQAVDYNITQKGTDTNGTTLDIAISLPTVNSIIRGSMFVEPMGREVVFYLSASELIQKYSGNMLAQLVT", "experiment": "isothermal titration calorimetry", "conditions": "PBS pH 7.4, 5% DMSO, 25 °C; one set of sites"}, "Linker-NEAT1 [2]": {"biological_target": "T3, Linker-NEAT1 (Streptococcus pyogenes, UniProt Q99YA0)", "T3 construct": "gene shr; linker + NEAT1 domain, Ser294-Gly502 of 1275-residue Shr; E. coli BL21(DE3)", "T3 sequence (Q99YA0 294-502)": "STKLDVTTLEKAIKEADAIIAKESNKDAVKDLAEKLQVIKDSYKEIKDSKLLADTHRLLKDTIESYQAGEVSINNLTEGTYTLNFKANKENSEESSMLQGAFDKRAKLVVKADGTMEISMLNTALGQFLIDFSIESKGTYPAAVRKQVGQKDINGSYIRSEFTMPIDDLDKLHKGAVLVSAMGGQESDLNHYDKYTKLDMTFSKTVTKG", "experiment": "isothermal titration calorimetry", "conditions": "PBS pH 7.4, 5% DMSO, 25 °C; one set of sites"}, "Linker-NEAT1 [3]": {"biological_target": "T3, Linker-NEAT1", "experiment": "differential scanning calorimetry", "conditions": "PBS; 1 mg/ml protein"}, "NEAT2 [4]": {"biological_target": "T1, NEAT2", "experiment": "differential scanning calorimetry", "conditions": "PBS; 1 mg/ml protein"}},
  "data": [
    {"substance": "heme", "values": [
      {"measurement": "Kd", "setting": "NEAT2 [1]", "value": "12.7 ± 10.3", "unit": "nM"},
      {"measurement": "Kd", "setting": "Shp", "value": "< 0.81", "unit": "nM"},
      {"measurement": "Kd", "setting": "Linker-NEAT1 [2]", "value": "32 ± 23.4", "unit": "nM"},
      {"measurement": "Tm with heme (apo 34.6 °C)", "setting": "Linker-NEAT1 [3]", "value": 41.1, "unit": "°C"},
      {"measurement": "Tm with heme (apo 58.1 °C)", "setting": "NEAT2 [4]", "value": 64.0, "unit": "°C"}
    ]}
  ]
}
